According to patent US20260240962A1, “PHARMACEUTICAL COMPOSITION FOR TREATING AND/OR PREVENTING CANCER” (TORAY INDUSTRIES, INC., priority 2023, published 2026):

Columns and labels:
[1] = tested on: CAPRIN-1 protein on the membrane surface of the cancer cells; experiment: Flow cytometry of CAPRIN-1 protein on the membrane surface of HCT-116 treated with low molecular weight compounds; assay type: cell-based, human; details: 1 to 3 days, vs DMSO negative control
Method: (§1) 2×10^5 cancer cells suspended in Dulbecco's PBS(−) containing 1% fetal bovine serum (hereinafter, 1% FCS-PBS(−)) were reacted with an antibody against CAPRIN-1 at a concentration of 1 to 10 μg/mL, and then allowed to react on ice (or at 4° C.) for 1 hour.
After the antibody reaction, cells were washed with 1% FCS-PBS (−) and then reacted with a fluorescently labeled anti-IgG secondary antibodies (FITC Goat anti-rabbit IgG (BD Biosciences, 554020), Alexa Fluor 488 anti-rabbit IgG (H+L) (Invitrogen, A21206), Alexa Fluor 647 anti-rabbit IgG (BioLegend, 406414). Alexa Fluor 488 F(ab′)2 anti-mouse IgG (H+L) (Invitrogen, A11017) or Alexa Fluor 488 anti-human IgG (H+L) (Invitrogen, A11013) at a concentration of 1 to 10 μg/mL for reaction with an antibody against CAPRIN-1, followed by 1 hour of reaction on ice (or at 4° C.). After reaction with the fluorescently labeled secondar antibodies, cells were washed with 1% FCS-PBS(−) and then reacted with a PI (propidium iodide) solution (DOJINDO, 341-07881) or Fixable Viability Stain 450 (BD Horizon) prepared at a concentration of 0.1 μg/mL for 15 minutes. Cells were then washed with 1% FCS-PBS(−) and then the scattered light intensity and fluorescence intensity were measured using a flow cytometer according to a standard method.

[2] = tested on: HCT-116; experiment: Antitumor effect in HCT-116 cancer-bearing nude mice; assay type: in vivo; details: HCT-116 subcutaneous in nude mice; 10 mg/kg twice a week into the tail vein
Method: The antitumor effect of Dorsomorphin, which was an AMPK inhibitor, confirmed in Example 9 to have the effect of reducing the expression of the CAPRIN-1 protein on the membrane surface of the cancer cells, was confirmed. HCT-116, which were the cancer cells confirmed to express the CAPRIN-1 protein on the cell membrane surface were cultured in a normal culture flask using a complete medium containing 10% fetal bovine serum according to a standard method, and then mixed with RPMI-1640 medium containing 20% Matrigel Basement Membrane Matrix (Corning, 354234), and 1 to 2×10^7 cancer cells per mouse were subcutaneously inoculated into nude mice under anesthesia. After the cancer cells were inoculated, the size of the cancer in each cancer-bearing mouse was measured over time using a vernier caliper, and the tumor volume was calculated for each individual mouse using the formula: (length of the long axis of the cancer)×(length of the short axis of the cancer) 2×0.5 according to a standard method, and the average value of the administration group was calculated. After the cancer cells were inoculated, Dorsomorphin was administered at 10 mg/kg twice a week into the tail vein of each cancer-bearing mouse whose tumor size reached 100 to 200 mm^3 or more. […]

[3] = tested on: OVCAR3; experiment: Soft agar colony formation assay (anchorage-independent colony-forming ability), OVCAR3; assay type: cell-based, human; details: OVCAR3 treated with trypsin vs not treated, 2 to 4 weeks
Method: (§2) 10^4 cells of each of the above cells were suspended in DMEM medium gel containing 10% fetal bovine serum containing 0.4% soft agar (Difco, 214220), added to a Petri dish with a diameter of 35 mm, and then incubated under an environment of 37° C. and 5% CO2 for 2 to 4 weeks. After incubation, the number of colonies formed in the gel was counted.

[4] = tested on: SK-MEL-5; experiment: Soft agar colony formation assay (anchorage-independent colony-forming ability), SK-MEL-5; assay type: cell-based, human; details: SK-MEL-5 treated with trypsin vs not treated, 2 to 4 weeks
Method: as §2
SK-MEL-5, winch were the cancer cells confirmed to express the CAPRIN-1 protein on the cell membrane surface in Example 3, was cultured in a normal culture flask using a complete medium containing 10% fetal bovine serum under an environment of 37° C. and 5% CO2. The cultured SK-MEL-5 was collected from the flask using a cell scraper. […] On the other hand, […], SK-MEL-5, […], was used to evaluate the anchorage-independent colony-forming ability by soft agar colony formation assay. 10^4 cells of each of the above cells were suspended in a DMEM medium gel containing 10% fetal bovine serum containing 0.4% soft agar (Difco, 214220), added to a Petri dish with a diameter of 35 mm, and then incubated under an environment of 37° C. and 5% CO2 for 2 to 4 weeks.

[5] = tested on: CAPRIN-1 protein on the cell membrane surface; experiment: Flow cytometry of CAPRIN-1 protein on the cell membrane surface after trypsin treatment; assay type: cell-based, human; details: Trypsin/EDTA (0.05%) for 5 minutes, vs cells not treated
Method: as §1, with “The expression of the CAPRIN-1 protein on the cell membrane surface of the cancer cells for which the expression of the CAPRIN-1 gene was confirmed in Example 1 was confirmed by flow cytometry. 2×10^5” for “2×10^5”, “hour. […]” for “hour.”
SK-MEL-5 and OVCAR3, which were the cancer cells confirmed to express the CAPRIN-1 protein on the cell membrane surface in Example 3, were cultured in a normal culture flask using a complete medium containing 10% fetal bovine serum under an environment of 37° C. and 5% CO2. […] Portions of the collected cells were treated with a solution containing trypsin, which was a digestive enzyme, (Thermo, Trypsin/EDTA (0.05%)) for 5 minutes, and then the proportions of live cells and dead cells stained with trypan blue were measured and calculated using the trypan blue exclusion method according to a standard method, and then the cell density of live cells was calculated. […]

Molecule: CCN(CC)CCCC(C)Nc1nc(C)cc(Nc2ccc3nc(C)cc(N)c3c2)n1.Cl.Cl.Cl (racemic) [Rac1 inhibitor (CAS #1177865-17-6)]
- expression of the CAPRIN-1 protein on the membrane surface of the cancer cells ([1]; final concentration 250 nM): clearly reduced

Molecule: c1cc(-c2cnn3cc(-c4ccc(OCCN5CCCCC5)cc4)cnc23)ccn1 [Dorsomorphin]
- tumor size, when the tumor size of the untreated cancer-bearing mice was taken as 100% [2]: ≤ 70%

Molecule: O=C(N/N=C/c1ccc(O)c(O)c1)c1cc2ccccc2cc1O [Dynasore]
- expression of the CAPRIN-1 protein on the membrane surface of the cancer cells ([1]; final concentration 100 μM): clearly reduced

Molecule: COc1ccc(CNC(=O)Nc2ncc([N+](=O)[O-])s2)cc1 [GSK-3D inhibitor VIII]
- expression of the CAPRIN-1 protein on the membrane surface of the cancer cells ([1]; final concentration 10 μM): clearly reduced

Molecule: FC(F)(F)c1ccc(/C=C/c2nc(COc3ccc(CCCCn4ccnn4)cc3)co2)cc1 [Mubritinib]
- expression of the CAPRIN-1 protein on the membrane surface of the cancer cells ([1]; final concentration 1 μM): clearly reduced

Molecule: Cc1ccc(C(=O)Cn2c3c(sc2=N)CCCC3)cc1 [Pifithrin-α]
- expression of the CAPRIN-1 protein on the membrane surface of the cancer cells ([1]; final concentration 30 μM): clearly reduced

Molecule: Cn1c2cccc(=O)c-2nc2ccccc21 [Pyocyanin]
- expression of the CAPRIN-1 protein on the membrane surface of the cancer cells ([1]; final concentration 20 μM): clearly reduced

Molecule: COc1cccc(-c2cc(NCc3ccc4c(c3)OCO4)nc(N)n2)c1 [Wnt agonist 1]
- expression of the CAPRIN-1 protein on the membrane surface of the cancer cells ([1]; final concentration 20 μM): clearly reduced

Molecule: Cc1cc(-c2ccc(CC(=O)Nc3ccc(-c4cccnc4)cc3)cc2)ccn1 [Wnt-C59]
- expression of the CAPRIN-1 protein on the membrane surface of the cancer cells ([1]; final concentration 5 μM): clearly reduced

B1: trypsin (protein, UniProt P00761 9-231, looked up)
Trypsin: IVGGYTCAANSIPYQVSLNSGSHFCGGSLINSQWVVSAAHCYKSRIQVRLGEHNIDVLEGNEQFINAAKIITHPNFNGNTLDNDIMLIKLSSPATLNSRVATVSLPRSCAAAGTECLISGWGNTKSSGSSYPSLLQCLKAPVLSDSSCKSSYPGQITGNMICVGFLEGGKDSCQGDSGGPVVCNGQLQGIVSWGYGCAQKNKPGVYTKVCNYVNWIQQTIAAN
modifications: EDTA solution
notes: hydrolytic / digestive enzyme; solution containing trypsin (Thermo, Trypsin/EDTA (0.05%))
- number of colonies formed [3]: significantly lower
- number of colonies formed [4]: significantly lower
- expression of the CAPRIN-1 protein on the cell membrane surface ([5]; OVCAR3): reduced
- expression of the CAPRIN-1 protein on the cell membrane surface ([5]; SK-MEL-5): reduced
